“And” between values parts separate entries of the source, which are not always exact repeats. Equal values may be shown once.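 These data come from cells grown in 96-well plates and exposed to compound for 48 hours at five concentrations. Abbreviation: GI50, concentration required for 50% inhibition of growth. TGI denotes the concentration required for complete inhibition of growth.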

Holding throughout (experiment): NCI anticancer screen, dose series, 48 h
The test system of experiment [1] is OVCAR-5 ovarian.
For experiment [2], the system named is IGROV1 ovarian.
Experiment [3] concerns HCT-116 colon.
Experiment [4] deals with NCI/ADR-RES ovarian.
The subject of experiment [5] is RXF 393 renal.
The subject of experiment [6] is SK-MEL-2 melanoma.
The test system of experiment [7] is HS 578T breast.
The subject of experiment [8] is A498 renal.
The test system of experiment [9] is NCI-H23 lung.
Experiment [10] concerns NCI-H460 lung.

For `CCc1nc(-n2c(CC)nc3ccccc3c2=O)nc(N)c1-c1ccc(Cl)cc1`, the GI50 was 30900 nM in experiment [1]; 48500 nM in experiment [2]; greater than 26200 nM in experiment [3]; 7170 nM in experiment [4]; greater than 100000 nM in experiment [5]; greater than 100000 nM in experiment [6]. Also, the GI50 in [7] was 48400 nM; in experiment [8], 27200 nM; in experiment [9] it was 10900 nM; in experiment [10], 14000 nM. The TGI in [1], in experiment [2], in experiment [3], in [4], in experiment [5] and in experiment [6] was greater than 100000 nM in each case. For the same molecule, the TGI was greater than 100000 nM in experiment [7], greater than 94500 nM in experiment [8], greater than 100000 nM in experiment [9] and greater than 100000 nM in experiment [10].

Regarding `CNS(=O)(=O)c1ccccc1C(=N)c1ccccc1`, the TGI in [1], in experiment [2], in [3], in experiment [4], in experiment [5] and in experiment [6] was greater than 100000 nM each time. For the same molecule, the TGI in experiment [7], in experiment [8], in [9] and in experiment [10] was greater than 100000 nM throughout.

`c1ccc(CCCNc2nnnc3ccccc23)cc1`: the TGI in experiment [1], in experiment [2], in experiment [3], in experiment [4], in [5] and in experiment [6] was greater than 100000 nM in each case. The TGI in [7], in experiment [8], in experiment [9] and in experiment [10] was greater than 100000 nM each time.

Consider `COc1ccc(-c2ccc3ncc4c(c3c2)n(-c2ccc(N3CCNCC3)c(C(F)(F)F)c2)c(=O)n4C)cn1`, for which the GI50 in experiment [1] is < 11.5 nM and 7.52 nM; in [2], < 10 nM and 1.6 nM; in experiment [3], < 14.3 nM and 8.53 nM; in experiment [4], 53.1 nM and 59.5 nM; in experiment [5], < 10 nM and 1.8 nM; in experiment [6], < 10 nM and 10.1 nM. The GI50 was < 10 nM and 1.97 nM in experiment [7]; < 10 nM and 2.24 nM in [8]; < 13.1 nM and 15.6 nM in experiment [9]; < 10 nM and 3.89 nM in experiment [10]. Further, the TGI in experiment [2] is 33.2 nM and 16.2 nM; in experiment [3], 165 nM and 142 nM; in experiment [4], 1270 nM and 712 nM; in experiment [5], < 32.3 nM and 9.77 nM; in experiment [6] it was 36.9 nM and 44 nM; in experiment [7], 18.1 nM and 13 nM. In addition, the TGI was < 10 nM and 12 nM in experiment [8]; 424 nM and 439 nM in experiment [9]; 223 nM and 141 nM in [10].

Turning to `CCCCCCCCCCCCOC1C(CNCC2OC3OC(C)(C)OC3C2NC(=O)Nc2ccc(C(F)(F)F)cc2)OC2OC(C)(C)OC21` (centres undefined), the GI50 in [1] was 9110 nM; in [2], 6770 nM; in experiment [3] it was 2460 nM; in [4], 8440 nM; in [5], 3370 nM; in [6] it was 9090 nM. For the same molecule, the GI50 in [7] is 5390 nM; in [8], 8450 nM; in experiment [9] it was 8780 nM; in [10], 4230 nM. For the same molecule, the TGI amounted to 17000 nM in experiment [1]; 15600 nM in experiment [2]; 4700 nM in experiment [3]; 17100 nM in experiment [4]; 8990 nM in [5]; 19300 nM in experiment [6]. In addition, the TGI amounted to 14100 nM in experiment [7], 15500 nM in experiment [8], 19000 nM in experiment [9] and 11800 nM in [10].

With `COc1cc(OC)cc(-c2ccc(-c3ccc(C(=N)N)s3)s2)c1`, the GI50 was 1500 nM in experiment [1]; 2030 nM in experiment [2]; 318 nM in [3]; 1750 nM in experiment [4]; 1250 nM in experiment [5]; 1620 nM in experiment [6]. Further, the GI50 was 1350 nM in experiment [7], 1460 nM in experiment [8], 1660 nM in experiment [9] and 482 nM in experiment [10]. The TGI in [1] came to 3190 nM; in experiment [2] it was 3990 nM; in [3] it was 1220 nM; in [4], 3580 nM; in experiment [5], 2990 nM; in [6], 3140 nM. Besides, the TGI in experiment [7] was found to be 3220 nM; in experiment [8] it was 3050 nM; in experiment [9] it was 3340 nM; in [10], 1790 nM.

Regarding `C[C@@H]1[C@H]2[C@H](C=C3[C@@H]4CC[C@H]5Cc6nc7c(nc6C[C@]5(C)[C@H]4C[C@@H](O)[C@@]32C)C[C@@H]2CC[C@H]3C4=C[C@@H]5O[C@@]6(CC[C@](C)(CO)O6)[C@@H](C)[C@@]5(O)[C@@]4(C)[C@H](O)C[C@@H]3[C@@]2(C)C7)O[C@]12CCC(C)(C)O2`, the GI50 in experiment [1] is 1220 nM; in experiment [2], 2160 nM; in experiment [3], 690 nM; in [4], 11000 nM; in [5], 70.6 nM; in [6], 900 nM. The GI50 in experiment [7] was 165 nM; in experiment [8], 236 nM; in experiment [9], 1610 nM; in [10] it was 466 nM. In addition, the TGI in experiment [1] was 19600 nM; in [2] it was 62800 nM; in [3] it was 31200 nM; in experiment [4] it was greater than 100000 nM; in experiment [5] it was 333 nM; in experiment [6] it was 18000 nM. In addition, the TGI in [7] is 890 nM; in experiment [8] it was 543 nM; in experiment [9], 23100 nM; in [10], 4950 nM.

As for `Fc1c[c-]c(-c2ccccn2)c(F)c1.[CH3-].[Pt+2].c1ccc([PH+](c2ccccc2)c2ccccn2)cc1`, the GI50 in experiment [1] was 1720 nM; in experiment [2], 1710 nM; in [3], 1300 nM; in [4] it was 1810 nM; in experiment [5] it was 1320 nM; in [6] it was 2220 nM. The GI50 in experiment [7] is 1960 nM; in experiment [8], 1480 nM; in experiment [9] it was 1570 nM; in [10] it was 1630 nM. In addition, the TGI in experiment [1] was found to be 3630 nM; in [2], 5020 nM; in experiment [3], 2800 nM; in experiment [4], 5350 nM; in [5], 2760 nM; in [6] it was 5860 nM. For the same molecule, the TGI in [7] amounted to 5890 nM; in [8] it was 4060 nM; in experiment [9], 3640 nM; in [10], 4910 nM.

The values above are taken from PubChem BioAssay (NCI).
